Key:
S. pneumoniae D39V [1] = assay: Bliss interaction score (quartile over a dose matrix) (fitness difference); higher = more antagonism (negative = synergy)
In short: (§1)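 Values were capped at 1 after dividing OD595 at stationary-phase entry by the plate's robust no-drug mean. This ratio is fitness, and single-drug fitness was inferred from the combination data. The Bliss score is observed minus product-expected fitness, given as quartiles over technical, biological and donor/recipient replicates.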

S. aureus Newman [2] = assay: as above
In short: as §1

S. aureus DSM 20231 [3] = assay: as above
In short: as §1

B. subtilis 168 [4] = assay: as above
In short: as §1

S. pneumoniae D39V [5] = assay: fitness (endpoint OD595 vs no drug) (fraction); higher = more growth
In short: (§2)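 In 384-well plates at 37 °C, cultures began at OD595 0.01 in 30 µl, with 55 µl used for S. pneumoniae. OD595 readings every 30 min for 14 h were corrected by the first reading. Fitness divides the stationary-phase transition optical density by the robust mean of no-drug control wells. The result is capped at 1.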

S. aureus Newman [6] = assay: as above
In short: as §2

S. aureus DSM 20231 [7] = assay: as above
In short: as §2

B. subtilis 168 [8] = assay: as above
In short: as §2
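Throughout, for Bliss interaction score (quartile over a dose matrix): first quartile when negative (synergy) and third quartile when positive (antagonism).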

O=C(O[C@@H]1Cc2c(O)cc(O)cc2O[C@@H]1c1cc(O)c(O)c(O)c1)c1cc(O)c(O)c(O)c1 [EGCG] + CN[C@@H]1[C@H](O)[C@H](NC)[C@H]2O[C@@]3(O)C(=O)C[C@@H](C)O[C@H]3O[C@@H]2[C@H]1O [Spectinomycin]
Conditions | Bliss interaction score
B. subtilis 168 [4] | -0.0513
S. aureus DSM 20231 [3] | -0.0655
S. aureus Newman [2] | -0.0777
S. pneumoniae D39V [1] | -0.0456

fitness
Conditions | B. subtilis 168 [8] | S. aureus DSM 20231 [7] | S. aureus Newman [6] | S. pneumoniae D39V [5]
first compound 6.25 µg/mL, partner 2 µg/mL | 0.919 | – | – | –
first compound 6.25 µg/mL, partner 4 µg/mL | 0.959 | – | – | –
first compound 6.25 µg/mL, partner 8 µg/mL | 0.942 | – | – | –
first compound 12.5 µg/mL, partner 4 µg/mL | – | 0.716 | 0.775 | 0.918
first compound 12.5 µg/mL, partner 8 µg/mL | 0.755 | 0.841 | 0.825 | 0.892
first compound 12.5 µg/mL, partner 16 µg/mL | – | 0.783 | 0.783 | 0.662
first compound 25 µg/mL, partner 4 µg/mL | – | 0.795 | 0.631 | 0.884
first compound 25 µg/mL, partner 8 µg/mL | 0.351 | 0.829 | 0.784 | 0.858
first compound 25 µg/mL, partner 16 µg/mL | – | 0.696 | – | 0.692
first compound 50 µg/mL, partner 4 µg/mL | – | 0.762 | – | 0.928
first compound 50 µg/mL, partner 8 µg/mL | – | 0.778 | 0.748 | 0.942
first compound 50 µg/mL, partner 16 µg/mL | – | 0.724 | – | –

fitness, one replicate
Conditions | first compound 12.5 µg/mL | first compound 25 µg/mL | first compound 50 µg/mL
S. aureus DSM 20231 [7], partner 32 µg/mL | 0.732 | 0.693 | 0.556
S. aureus DSM 20231 [7], partner 64 µg/mL | 0.118 | 0.0939 | 0.028
S. aureus Newman [6], partner 32 µg/mL | 0.385 | 0.167 | 0.0466
S. aureus Newman [6], partner 64 µg/mL | 0.0419 | 0.0446 | 0.0186

O=C(O[C@@H]1Cc2c(O)cc(O)cc2O[C@@H]1c1cc(O)c(O)c(O)c1)c1cc(O)c(O)c(O)c1 [EGCG] + COc1c(N2C[C@@H]3CCCN[C@@H]3C2)c(F)cc2c(=O)c(C(=O)O)cn(C3CC3)c12 [Moxifloxacin]
Conditions | Bliss interaction score
B. subtilis 168 [4] | 0.04
S. aureus DSM 20231 [3] | -0.0635
S. aureus Newman [2] | 0.103
S. pneumoniae D39V [1] | -0.0486

fitness
Conditions | first compound 6.25 µg/mL | first compound 12.5 µg/mL | first compound 25 µg/mL | first compound 50 µg/mL
B. subtilis 168 [8], partner 0.0312 µg/mL | 0.0635 | 0.316 | 0.136 | –
B. subtilis 168 [8], partner 0.0625 µg/mL | 0.0647 | 0.0486 | 0.0468 | –
B. subtilis 168 [8], partner 0.125 µg/mL | 0.0455 | 0.0337 | 0.032 | –
B. subtilis 168 [8], partner 2 µg/mL | 0.0355 | 0.0567 | 0.0285 | –
B. subtilis 168 [8], partner 4 µg/mL | 0.0375 | 0.028 | 0.0104 | –
B. subtilis 168 [8], partner 8 µg/mL | 0.0396 | 0.0267 | 0.0587 | –
S. aureus DSM 20231 [7], partner 0.0075 µg/mL | – | 0.686 | 0.605 | 0.629
S. aureus DSM 20231 [7], partner 0.015 µg/mL | – | 0.615 | 0.628 | 0.594
S. aureus DSM 20231 [7], partner 0.03 µg/mL | – | 0.53 | 0.554 | –
S. aureus Newman [6], partner 0.0075 µg/mL | – | 0.704 | 0.695 | –
S. aureus Newman [6], partner 0.015 µg/mL | – | – | – | 0.582
S. aureus Newman [6], partner 0.03 µg/mL | – | 0.3 | – | 0.0803
S. pneumoniae D39V [5], partner 0.005 µg/mL | – | 0.942 | 0.947 | 0.973
S. pneumoniae D39V [5], partner 0.01 µg/mL | – | 0.966 | 0.973 | 0.989
S. pneumoniae D39V [5], partner 0.02 µg/mL | – | 0.918 | 0.933 | 0.931
S. pneumoniae D39V [5], partner 0.0312 µg/mL | – | 0.265 | 0.152 | 0.499
S. pneumoniae D39V [5], partner 0.0625 µg/mL | – | 0.0738 | 0.0517 | 0.944
S. pneumoniae D39V [5], partner 0.125 µg/mL | – | 0.0322 | 0.0297 | 0.69

fitness, S. aureus DSM 20231 [7], one replicate
Conditions | first compound 12.5 µg/mL | first compound 25 µg/mL | first compound 50 µg/mL
partner 0.06 µg/mL | 0.636 | 0.584 | 0.607
partner 0.12 µg/mL | 0.537 | 0.495 | 0.506

O=C(O[C@@H]1Cc2c(O)cc(O)cc2O[C@@H]1c1cc(O)c(O)c(O)c1)c1cc(O)c(O)c(O)c1 [EGCG] + COc1ccc(C[C@H](N)C(=O)N[C@H]2[C@@H](O)[C@H](n3cnc4c(N(C)C)ncnc43)O[C@@H]2CO)cc1 [Puromycin]
Conditions | Bliss interaction score
B. subtilis 168 [4] | -0.0503
S. aureus DSM 20231 [3] | 0.09
S. aureus Newman [2] | 0.0755
S. pneumoniae D39V [1] | 0.0916

fitness
Conditions | first compound 6.25 µg/mL | first compound 12.5 µg/mL | first compound 25 µg/mL | first compound 50 µg/mL
B. subtilis 168 [8], partner 0.39 µg/mL | 0.91 | – | – | –
B. subtilis 168 [8], partner 0.78 µg/mL | 0.953 | – | – | –
B. subtilis 168 [8], partner 1.56 µg/mL | 0.885 | – | – | –
S. aureus DSM 20231 [7], partner 0.39 µg/mL | – | 0.908 | 0.842 | –
S. aureus DSM 20231 [7], partner 0.78 µg/mL | – | 0.888 | 0.812 | 0.845
S. aureus DSM 20231 [7], partner 1.56 µg/mL | – | 0.864 | 0.846 | 0.777
S. aureus Newman [6], partner 0.39 µg/mL | – | 0.802 | 0.779 | 0.657
S. aureus Newman [6], partner 0.78 µg/mL | – | 0.809 | 0.789 | –
S. aureus Newman [6], partner 1.56 µg/mL | – | 0.846 | 0.787 | –
S. pneumoniae D39V [5], partner 1 µg/mL | – | 0.949 | – | 0.965
S. pneumoniae D39V [5], partner 2 µg/mL | – | 0.895 | 0.917 | 0.91
S. pneumoniae D39V [5], partner 4 µg/mL | – | – | 0.384 | –

fitness, S. aureus DSM 20231 [7], one replicate
Conditions | first compound 12.5 µg/mL | first compound 25 µg/mL | first compound 50 µg/mL
partner 3.12 µg/mL | 0.846 | 0.945 | 0.676
partner 6.24 µg/mL | 0.745 | 0.527 | 0.172

— the supplement of paper PMC10627819
